Legend:
[1] = tested on: CFBE cells at ALI; test: Ussing chamber assay, short circuit current; assay type: cell-based, human; settings: apical PBAE/PLGA/MPG NPs, 2 mg/dose, 3 doses
Description: FIG. 5A is a Schematic of treatment of cells grown at ALI. FIG. 5B is a bar graph showing Ussing Chamber assay results. CFBE cells at ALI were treated apically at 2 mg/dose for 3 doses with 48 hours between each dose **p<0.001; ***p<0.002. FIG. 5C is a dot plot showing digital droplet (ddPCR) quantification of gene editing in genomic DNA isolated from CFBE cells at ALI treated apically at 2 mg/dose for 3 doses with 48 hours between each dose ***p<0.002.
Ussing experiments were performed as previously described (Bruscia, et al., Proc Natl Acad Sci USA 103, 2965-2970 (2006)). An Easy Mount Ussing Chamber System (Physiologic Instruments) was heated to 37° C. Electrode tips were prepared by partial filling with 3% agar in 3M KCl and subsequently backfilling with a 3M KCl. The Ussing chambers are equipped with current and voltage electrodes loaded with these tips. […] The transepithelial voltage and membrane resistance was measured during each pulse. Under these conditions, short circuit current (Isc) was calculated using Ohm's Law at the timepoint wherein the basolateral chamber was filled with a chloride-free solution following 20 minutes of equilibration in Kreb's Bicarbonate Ringers. […]

[2] = tested on: CFBE cells; test: Comet assay for DNA damage; assay type: cell-based, human; settings: versus untreated cells
Description: FIG. 6 is a bar graph showing the results of a comet assay for DNA damage. TriTek Comet Score FreeWare was used to calculate comet tail moment for each treatment condition. Plots show the average comet tail moment which indicates the extent of DNA damage. Error bars represent the SEM; ****P<0.0001 by unpaired t-test.
50,000 CFBE cells were plated per well in 6-well plates. The following day, the cells were treated with the indicated PNA containing NPs, treated with lipfectamine alone, or transfected with CRISPR-based editing reagents. The next day, cells were collected and prepared using the Trevigen Comet Assay kit per the manufacturer's protocol (Trevigen, Gaithersburg, Md.). Briefly, cells were suspended in agarose and added to comet slides. After the agarose solidified, the slides were incubated for 1 hour in lysis solution, placed in electrophoresis solution for 30 min, then run at 21 V for 1 hour at 4° C. The slides were then placed in acetate solution for 30 min, then incubated in 70% ethanol solution for 30 min. The comet slides were then dried, stained with SYBR Green for 30 min and then visualized using an EVOS microscope. TriTek Comet Score freeware was used to analyze the images. The average comet tail moment was plotted for each condition. Error bars represent the SEM; ****P<0.0001 by unpaired t-test. […]

Row | Substance | Isc (short circuit current), cAMP stimulated [1] | comet tail moment [2]
1 | H-KKK-TJTJJTTT-OOO-TTTCCTCTATGGGTAAG-KKK-NH2 [hCF PNA] (TNTNNTTTTTTCCTCTATGGGTAAG; listed as DNA, chemistry not fully specified) | minimum Isc | –
2 | H-KKK-TJTJJTTT-OOO-TTTCCTCTATGGGTAAG-KKK-NH2 [γhCF PNA-h] (TNTNNTTTTTTCCTCTATGGGTAAG; listed as DNA, chemistry not fully specified) [tail clamp PNA targeting human CFTR gene with MPγ monomers in Hoogsteen domain] | marked increase | no significant change in comet tail moment

Reference: US20220243211A1, “PEPTIDE NUCLEIC ACID COMPOSITIONS WITH MODIFIED HOOGSTEEN BINDING SEGMENTS AND METHODS OF USE THEREOF” (Yale University, priority 2019, published 2022)
